The values that follow come from US10894777B2, “TG2 inhibitor piperazine compounds and uses thereof” (UNIVERSITY OF OTTAWA, priority 2016, dated 2021).

Each structure is given as a SMILES string. Read-outs that look alike come from different tables or passages of the source.

For the experiment, the target named is T1, TG2 (Homo sapiens, UniProt P21980).
T1 sequence (P21980 1-687): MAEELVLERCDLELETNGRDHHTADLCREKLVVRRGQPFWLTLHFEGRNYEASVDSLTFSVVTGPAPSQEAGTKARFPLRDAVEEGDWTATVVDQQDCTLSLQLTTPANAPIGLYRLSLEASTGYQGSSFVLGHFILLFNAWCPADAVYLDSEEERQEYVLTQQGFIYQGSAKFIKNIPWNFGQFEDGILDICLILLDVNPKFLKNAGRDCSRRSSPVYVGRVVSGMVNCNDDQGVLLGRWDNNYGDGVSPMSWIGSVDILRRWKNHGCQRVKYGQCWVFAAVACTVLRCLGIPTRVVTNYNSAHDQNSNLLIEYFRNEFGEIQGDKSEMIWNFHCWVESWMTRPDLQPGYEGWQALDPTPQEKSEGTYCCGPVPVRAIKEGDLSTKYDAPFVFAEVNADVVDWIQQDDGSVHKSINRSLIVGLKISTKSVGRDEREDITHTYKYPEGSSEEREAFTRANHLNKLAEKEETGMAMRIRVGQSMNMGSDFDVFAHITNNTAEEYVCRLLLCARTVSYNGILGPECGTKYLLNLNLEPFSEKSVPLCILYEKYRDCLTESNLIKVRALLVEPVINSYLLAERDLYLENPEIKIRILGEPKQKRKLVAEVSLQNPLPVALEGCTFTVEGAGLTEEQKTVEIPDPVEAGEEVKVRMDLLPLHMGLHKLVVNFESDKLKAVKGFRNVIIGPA
The experiment can be described thus: Colorimetric transamidase activity assay (AL5 substrate), hTG2. Type of experiment: biochemical. The conditions noted are these: for enzyme inactivation, relative observed rate constants (kobs): high concentration of inhibitor (18 μM, FIG. 43); for kinact/KI: read-out: kinact/KI (10^3M^−1 min^−1).

Where [1] appears, read: Table 7, read-out: kinact (converted).
Where [2] appears, read: Table 8, read-out: kinact (converted).

Description: In Vitro Assays. Colorimetric transamidase activity assay. The activities of hTG1, hTG2 and hTG6 were measured via a colorimetric assay using the chromogenic substrate Cbz-Glu(γ-p-nitrophenyl ester)Gly (AL5). The assay was conducted at 25° C. in 100 mM MOPS buffer (pH 6.5) containing 3.0 mM CaCl2 and 50 μM EDTA. […] A stock solution of AL5 was prepared in DMSO such that the final concentration of this co-solvent was constant at 2.5% v/v. Stock solutions of the inhibitors were made in the buffer system previously described. The reaction was initiated with the addition of 40-60 mU/mL of the respective enzyme (0.10 μM hTG1, 0.25 μM hTG2 or 0.32 μM hTG6). Product formation was monitored at 405 nm in a polystyrene 96-well microplate using a BioTek Synergy 4 plate reader. […] Observed first-order rate constants of inactivation (kobs) were determined from non-linear regression fit to a mono-exponential model (Equation 1) of the observed absorbance of the enzymatic hydrolysis product, p-nitrophenolate (pNP). […] Experiments were done in triplicate and variation between repeats was less than 30%.

`C=CC(=O)NC[C@H](NC(=O)OCc1ccccc1)C(=O)N1CCN(S(=O)(=O)c2cccc3c(N(C)C)cccc23)CC1` [Compound 115, (S)-benzyl (3-acrylamido-1-(4-((5-(dimethylamino)naphthalen-1-yl)sulfonyl)piperazin-1-yl)-1-oxopropan-2-yl)carbamate]: the “enzyme inactivation, relative observed rate constants (kobs)” value is reported as “no significant enzyme inactivation was observed”. Still for that read-out and setting: with `C=CC(=O)NCC[C@H](NC(=O)OCc1ccccc1)C(=O)N1CCN(S(=O)(=O)c2cccc3c(N(C)C)cccc23)CC1` [Compound 116, (S)-benzyl (4-acrylamido-1-(4-((5-(dimethylamino)naphthalen-1-yl)sulfonyl)piperazin-1-yl)-1-oxobutan-2-yl)carbamate] the entry was “no significant enzyme inactivation was observed”. As to `C=CC(=O)NCCCC[C@H](NC(=O)OCc1ccccc1)C(=O)N1CCN(S(=O)(=O)CC)CC1` [Compound 134, (S)-benzyl (6-acrylamido-1-(4-(ethylsulfonyl)piperazin-1-yl)-1-oxohexan-2-yl)carbamate], the kinact (commonly the maximal first-order rate at which the target is inactivated) under setting [1] was 0.0237 s⁻¹. In addition, where the note is “Table 7”, the kinact/KI is 657 M⁻¹ s⁻¹.

As for `C=CC(=O)NCCCC[C@H](NC(=O)OCc1ccccc1)C(=O)N1CCN(S(=O)(=O)c2cccs2)CC1` [Compound 136, (S)-benzyl(6-acrylamido-1-oxo-1-(4-(thiophen-2-ylsulfonyl)piperazin-1-yl)hexan-2-yl)carbamate], the kinact under setting [1] was 0.0247 s⁻¹. Under “Table 7”, the kinact/KI was 613 M⁻¹ s⁻¹. For the compound `C=CC(=O)NCCC[C@H](NC(=O)OCc1ccccc1)C(=O)N1CCN(C(=O)c2ccccc2)CC1` [Compound 149, (S)-benzyl (5-acrylamido-1-(4-benzoylpiperazin-1-yl)-1-oxopentan-2-yl)carbamate], the kinact under setting [2] is 0.0795 s⁻¹. The kinact/KI (Table 8) is 2170 M⁻¹ s⁻¹. Regarding `C=CC(=O)NCCC[C@H](NC(=O)OCc1ccccc1)C(=O)N1CCN(C(C)=O)CC1` [Compound 151, (S)-benzyl(1-(4-acetylpiperazin-1-yl)-5-acrylamido-1-oxopentan-2-yl)carbamate], the kinact under setting [2] was 0.0343 s⁻¹. The “overall inhibition efficiency compared to sulfonamide counterpart” value (amide (Table 8) vs sulfonamide (Table 7)) is “almost three times less”. For the same compound, the kinact/KI (Table 8) was 615 M⁻¹ s⁻¹.

On to `C=CC(=O)NCCCC[C@H](NC(=O)OCc1ccccc1)C(=O)N1CCN(C(=O)c2ccccn2)CC1` [Compound 152, (S)-benzyl(6-acrylamido-1-oxo-1-(4-picolinoylpiperazin-1-yl)hexan-2-yl)carbamate], for which, for the setting “Table 8”, the inactivation rate constant (kinact) is 0.0488 ± 0.00483 s⁻¹ and the “kinact/KI (10^3M^−1 min^−1)” value was 91.3 ± 17.9 10^3M^−1 min^−1. For the compound `C=CC(=O)NCCCC[C@H](NC(=O)OCc1ccccc1)C(=O)N1CCN(C(=O)c2cccnc2)CC1` [Compound 153, (S)-benzyl (6-acrylamido-1-(4-nicotinoylpiperazin-1-yl)-1-oxohexan-2-yl)carbamate], the kinact under setting [2] is 0.024 s⁻¹. Further, the kinact/KI (Table 8) is 1020 M⁻¹ s⁻¹.

Consider `C=CC(=O)NCCCC[C@H](NC(=O)OCc1ccccc1)C(=O)N1CCN(C(=O)c2ccncc2)CC1` [Compound 154, (S)-benzyl-(6-acrylamido-1-(4-isonicotinoylpiperazin-1-yl)-1-oxohexan-2-yl)carbamate], for which the inactivation rate constant (kinact) under setting [2] was 0.0238 s⁻¹. Also, the kinact/KI (Table 8) is 617 M⁻¹ s⁻¹.
